{"source": "patent US7407973B2", "about": "“Use of pirfenidone in therapeutic regimens” (Intermune, Inc., priority 2003, dated 2008)", "assay_in_all_cases": "Enzymatic activity of human kinase in presence of pirfenidone", "format_in_all_cases": "biochemical", "conditions_in_all_cases": "percent of control activity in absence of pirfenidone, concentration not given", "key": {"[1]": {"molecular_target": "Bmx (Homo sapiens, UniProt P51813)", "protocol": "(§1) Enzymatic activity of various human kinases was assayed in the presence and the absence of pirfenidone. Percent enzyme activity of various human enzymes in the presence of substrate and pirfenidone are shown in FIGS. 1-5, and in Table 2, below, where “percent enzyme activity” is the percent of the control activity (e.g., in the absence of pirfenidone): […]"}, "[2]": {"molecular_target": "Rsk1 (Homo sapiens, UniProt Q15418)", "protocol": "as §1"}, "[3]": {"molecular_target": "CDK1/cyclinB (Homo sapiens, UniProt P06493)", "protocol": "as §1"}, "[4]": {"molecular_target": "PDGFRβ (Homo sapiens, UniProt P09619)", "protocol": "as §1"}, "[5]": {"molecular_target": "IKKα (Homo sapiens, UniProt O15111)", "protocol": "as §1"}, "[6]": {"molecular_target": "SAPK2β (Homo sapiens, UniProt Q15759)", "protocol": "as §1"}, "[7]": {"molecular_target": "CDK7/cyclinH/MAT1 (Homo sapiens, UniProt P50613)", "sequence (P50613 whole entry)": "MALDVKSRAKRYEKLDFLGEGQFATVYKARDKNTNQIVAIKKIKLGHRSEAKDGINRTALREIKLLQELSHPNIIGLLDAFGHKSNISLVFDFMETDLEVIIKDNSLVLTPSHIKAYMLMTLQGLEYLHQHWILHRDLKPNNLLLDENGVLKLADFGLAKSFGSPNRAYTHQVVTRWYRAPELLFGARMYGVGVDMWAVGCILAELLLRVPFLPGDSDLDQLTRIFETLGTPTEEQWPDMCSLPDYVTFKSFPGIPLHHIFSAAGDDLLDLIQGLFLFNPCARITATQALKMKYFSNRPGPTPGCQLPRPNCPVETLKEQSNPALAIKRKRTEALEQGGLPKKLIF", "sequence (P51946 whole entry partner)": "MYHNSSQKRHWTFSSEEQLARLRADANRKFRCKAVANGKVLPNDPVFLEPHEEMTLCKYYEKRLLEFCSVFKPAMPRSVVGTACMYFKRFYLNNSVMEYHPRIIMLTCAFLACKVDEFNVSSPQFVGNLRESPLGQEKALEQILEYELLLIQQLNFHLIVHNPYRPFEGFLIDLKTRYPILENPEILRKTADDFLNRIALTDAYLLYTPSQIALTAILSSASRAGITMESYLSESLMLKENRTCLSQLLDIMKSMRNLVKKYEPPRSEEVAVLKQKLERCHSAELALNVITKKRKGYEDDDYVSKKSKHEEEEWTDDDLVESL", "sequence (P51948 whole entry partner)": "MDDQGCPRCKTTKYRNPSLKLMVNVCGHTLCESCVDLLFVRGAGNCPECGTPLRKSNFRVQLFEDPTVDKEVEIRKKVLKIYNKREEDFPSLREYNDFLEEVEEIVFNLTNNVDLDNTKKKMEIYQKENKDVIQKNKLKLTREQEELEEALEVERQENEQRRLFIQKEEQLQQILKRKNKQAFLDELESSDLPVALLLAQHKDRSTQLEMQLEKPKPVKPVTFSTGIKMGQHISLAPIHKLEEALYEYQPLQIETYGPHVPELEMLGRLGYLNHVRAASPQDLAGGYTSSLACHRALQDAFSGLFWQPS", "protocol": "as §1"}, "[8]": {"test_system": "PKCa", "protocol": "as §1"}, "[9]": {"molecular_target": "PKA (Homo sapiens, UniProt P17612)", "protocol": "as §1"}, "[10]": {"molecular_target": "PKBβ (Homo sapiens, UniProt P31751)", "protocol": "as §1"}, "[11]": {"molecular_target": "PDGFR (Homo sapiens, UniProt P16234)", "protocol": "as §1"}, "[12]": {"molecular_target": "PKCμ (Homo sapiens, UniProt Q15139)", "sequence (Q15139 whole entry)": "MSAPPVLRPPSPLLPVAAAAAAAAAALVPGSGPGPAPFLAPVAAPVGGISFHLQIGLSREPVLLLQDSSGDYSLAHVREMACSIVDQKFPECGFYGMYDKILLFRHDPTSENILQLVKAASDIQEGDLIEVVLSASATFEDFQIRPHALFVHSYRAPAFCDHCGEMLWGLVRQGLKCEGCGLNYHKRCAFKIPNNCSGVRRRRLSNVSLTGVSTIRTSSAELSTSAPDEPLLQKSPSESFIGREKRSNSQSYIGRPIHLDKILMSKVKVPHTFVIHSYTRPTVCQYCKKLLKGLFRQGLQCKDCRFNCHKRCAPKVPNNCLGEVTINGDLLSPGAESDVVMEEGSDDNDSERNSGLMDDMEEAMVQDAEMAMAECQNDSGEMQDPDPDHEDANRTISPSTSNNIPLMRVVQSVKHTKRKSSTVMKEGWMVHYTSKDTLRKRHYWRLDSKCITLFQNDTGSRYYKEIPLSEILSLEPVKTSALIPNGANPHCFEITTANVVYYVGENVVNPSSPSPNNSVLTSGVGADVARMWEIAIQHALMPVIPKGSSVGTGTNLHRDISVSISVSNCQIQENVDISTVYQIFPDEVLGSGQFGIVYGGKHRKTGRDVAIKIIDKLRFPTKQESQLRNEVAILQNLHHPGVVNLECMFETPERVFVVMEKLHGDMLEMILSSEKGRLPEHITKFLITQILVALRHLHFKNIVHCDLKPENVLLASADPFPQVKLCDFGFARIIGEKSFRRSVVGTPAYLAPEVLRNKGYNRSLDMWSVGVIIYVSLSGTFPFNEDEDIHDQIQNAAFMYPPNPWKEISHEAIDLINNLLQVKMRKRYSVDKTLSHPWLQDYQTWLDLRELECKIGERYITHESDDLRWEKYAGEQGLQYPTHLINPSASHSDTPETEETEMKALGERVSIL", "protocol": "as §1"}, "[13]": {"molecular_target": "CDK3/cyclinE (Homo sapiens, UniProt Q00526)", "protocol": "as §1"}, "[14]": {"molecular_target": "CaMKIV (Homo sapiens, UniProt Q16566)", "protocol": "as §1"}, "[15]": {"molecular_target": "PKD2 (Homo sapiens, UniProt Q9BZL6)", "protocol": "as §1"}, "[16]": {"molecular_target": "IR (Homo sapiens, UniProt P06213)", "sequence (P06213 28-1382)": "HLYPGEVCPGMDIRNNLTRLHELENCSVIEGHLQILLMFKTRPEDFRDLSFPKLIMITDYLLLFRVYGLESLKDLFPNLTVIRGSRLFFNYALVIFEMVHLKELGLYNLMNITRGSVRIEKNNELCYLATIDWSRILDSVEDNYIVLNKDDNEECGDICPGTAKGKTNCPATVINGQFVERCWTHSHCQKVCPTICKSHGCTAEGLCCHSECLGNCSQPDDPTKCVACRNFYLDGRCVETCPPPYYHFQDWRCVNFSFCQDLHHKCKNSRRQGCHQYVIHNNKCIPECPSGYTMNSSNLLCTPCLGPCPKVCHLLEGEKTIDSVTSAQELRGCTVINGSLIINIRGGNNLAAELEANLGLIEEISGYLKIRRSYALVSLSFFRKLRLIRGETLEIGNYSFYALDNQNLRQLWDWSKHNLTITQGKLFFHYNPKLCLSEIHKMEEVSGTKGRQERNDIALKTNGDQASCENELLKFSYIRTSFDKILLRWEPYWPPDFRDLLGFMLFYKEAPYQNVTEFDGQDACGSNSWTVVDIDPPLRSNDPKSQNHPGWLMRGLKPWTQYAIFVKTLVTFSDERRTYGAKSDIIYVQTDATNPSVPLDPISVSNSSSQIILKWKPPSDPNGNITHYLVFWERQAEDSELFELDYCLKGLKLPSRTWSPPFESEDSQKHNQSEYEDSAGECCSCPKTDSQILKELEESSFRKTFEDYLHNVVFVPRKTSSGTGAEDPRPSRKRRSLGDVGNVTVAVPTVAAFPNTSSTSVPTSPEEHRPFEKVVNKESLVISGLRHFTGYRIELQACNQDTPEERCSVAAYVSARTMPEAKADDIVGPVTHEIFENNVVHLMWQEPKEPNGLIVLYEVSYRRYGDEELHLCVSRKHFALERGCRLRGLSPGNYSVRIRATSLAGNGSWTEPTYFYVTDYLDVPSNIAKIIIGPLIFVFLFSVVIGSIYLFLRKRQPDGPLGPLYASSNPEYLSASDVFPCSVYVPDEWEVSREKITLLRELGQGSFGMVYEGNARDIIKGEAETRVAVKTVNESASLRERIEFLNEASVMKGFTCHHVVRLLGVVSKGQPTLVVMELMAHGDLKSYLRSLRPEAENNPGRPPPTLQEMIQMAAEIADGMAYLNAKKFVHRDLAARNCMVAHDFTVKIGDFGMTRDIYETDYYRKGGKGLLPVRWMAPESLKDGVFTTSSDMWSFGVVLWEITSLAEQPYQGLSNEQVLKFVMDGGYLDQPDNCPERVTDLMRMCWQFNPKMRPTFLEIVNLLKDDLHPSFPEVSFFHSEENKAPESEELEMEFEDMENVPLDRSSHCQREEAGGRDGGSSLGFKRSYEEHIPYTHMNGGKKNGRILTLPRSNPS", "protocol": "as §1"}, "[17]": {"molecular_target": "FGFR3 (Homo sapiens, UniProt P22607)", "sequence (P22607 23-806)": "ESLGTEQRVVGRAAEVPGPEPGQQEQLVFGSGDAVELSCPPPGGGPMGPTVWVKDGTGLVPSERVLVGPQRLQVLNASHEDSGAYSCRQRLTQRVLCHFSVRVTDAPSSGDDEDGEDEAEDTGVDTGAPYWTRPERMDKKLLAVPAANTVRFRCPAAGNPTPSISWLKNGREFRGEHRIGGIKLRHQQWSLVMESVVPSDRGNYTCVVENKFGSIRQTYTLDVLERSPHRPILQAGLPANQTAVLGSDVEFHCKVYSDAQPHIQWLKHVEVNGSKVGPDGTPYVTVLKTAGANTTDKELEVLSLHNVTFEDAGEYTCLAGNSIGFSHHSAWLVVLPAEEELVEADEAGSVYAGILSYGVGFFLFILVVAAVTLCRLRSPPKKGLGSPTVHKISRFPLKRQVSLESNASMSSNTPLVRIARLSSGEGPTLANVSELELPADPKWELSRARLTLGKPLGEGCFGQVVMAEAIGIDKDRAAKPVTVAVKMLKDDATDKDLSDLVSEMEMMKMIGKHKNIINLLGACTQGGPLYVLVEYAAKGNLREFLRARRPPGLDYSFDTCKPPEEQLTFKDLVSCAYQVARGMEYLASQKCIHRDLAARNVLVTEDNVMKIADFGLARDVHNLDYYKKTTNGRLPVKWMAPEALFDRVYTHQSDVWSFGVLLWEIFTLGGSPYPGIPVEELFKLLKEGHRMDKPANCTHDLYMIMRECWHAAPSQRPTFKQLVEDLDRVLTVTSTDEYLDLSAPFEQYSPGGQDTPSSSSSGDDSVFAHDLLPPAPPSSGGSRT", "protocol": "as §1"}, "[18]": {"molecular_target": "Syk (Homo sapiens, UniProt P43405)", "protocol": "as §1"}, "[19]": {"molecular_target": "ROCK-II (Homo sapiens, UniProt O75116)", "protocol": "as §1"}, "[20]": {"molecular_target": "SGK (Homo sapiens, UniProt O00141)", "protocol": "as §1"}, "[21]": {"molecular_target": "PKCα (Homo sapiens, UniProt P17252)", "protocol": "as §1"}, "[22]": {"molecular_target": "IGF-1R (Homo sapiens, UniProt P08069)", "protocol": "as §1"}, "[23]": {"molecular_target": "CHK1 (Homo sapiens, UniProt O14757)", "sequence (O14757 whole entry)": "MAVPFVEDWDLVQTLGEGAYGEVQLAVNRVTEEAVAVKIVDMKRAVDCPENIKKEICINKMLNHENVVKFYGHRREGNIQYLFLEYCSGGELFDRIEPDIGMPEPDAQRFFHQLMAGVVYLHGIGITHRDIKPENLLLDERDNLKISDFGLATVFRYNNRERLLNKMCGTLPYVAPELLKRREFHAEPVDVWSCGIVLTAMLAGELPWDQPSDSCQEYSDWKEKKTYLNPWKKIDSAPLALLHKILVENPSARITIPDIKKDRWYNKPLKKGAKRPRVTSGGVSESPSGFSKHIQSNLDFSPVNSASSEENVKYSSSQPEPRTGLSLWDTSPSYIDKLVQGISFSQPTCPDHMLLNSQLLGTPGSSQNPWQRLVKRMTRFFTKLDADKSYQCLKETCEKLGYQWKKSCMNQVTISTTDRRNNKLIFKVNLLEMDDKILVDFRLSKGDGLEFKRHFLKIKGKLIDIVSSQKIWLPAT", "protocol": "as §1"}, "[24]": {"molecular_target": "Lyn (Homo sapiens, UniProt P07948)", "protocol": "as §1"}, "[25]": {"molecular_target": "SAPK4 (Homo sapiens, UniProt O15264)", "protocol": "as §1"}, "[26]": {"molecular_target": "p70S6K (Homo sapiens, UniProt P23443)", "protocol": "as §1"}, "[27]": {"molecular_target": "PKBγ (Homo sapiens, UniProt Q9Y243)", "protocol": "as §1"}, "[28]": {"test_system": "CDK7/cyclinD3", "protocol": "as §1"}, "[29]": {"molecular_target": "Yes (Homo sapiens, UniProt P07947)", "protocol": "as §1"}, "[30]": {"molecular_target": "PKBα (Homo sapiens, UniProt P31749)", "protocol": "as §1"}, "[31]": {"molecular_target": "SAPK3 (Homo sapiens, UniProt P53778)", "protocol": "as §1"}, "[32]": {"molecular_target": "GSK3β (Homo sapiens, UniProt P49841)", "protocol": "as §1"}, "[33]": {"molecular_target": "CHK2 (Homo sapiens, UniProt O96017)", "protocol": "as §1"}, "[34]": {"molecular_target": "Lck (Homo sapiens, UniProt P06239)", "protocol": "as §1"}, "[35]": {"molecular_target": "CDK2/cyclinE (Homo sapiens, UniProt P24941)", "protocol": "as §1"}, "[36]": {"molecular_target": "MSK1 (Homo sapiens, UniProt O75582)", "protocol": "as §1"}, "[37]": {"molecular_target": "PRAK (Homo sapiens, UniProt Q8IW41)", "protocol": "as §1"}, "[38]": {"molecular_target": "Fyn (Homo sapiens, UniProt P06241)", "protocol": "as §1"}, "[39]": {"molecular_target": "CDK2/cyclinA (Homo sapiens, UniProt P24941)", "protocol": "as §1"}, "[40]": {"molecular_target": "CK2 (Homo sapiens, UniProt P68400)", "protocol": "as §1"}, "[41]": {"molecular_target": "JNK2 (Homo sapiens, UniProt P45984)", "protocol": "as §1"}, "[42]": {"molecular_target": "MKK6 (Homo sapiens, UniProt P52564)", "sequence (P52564 whole entry)": "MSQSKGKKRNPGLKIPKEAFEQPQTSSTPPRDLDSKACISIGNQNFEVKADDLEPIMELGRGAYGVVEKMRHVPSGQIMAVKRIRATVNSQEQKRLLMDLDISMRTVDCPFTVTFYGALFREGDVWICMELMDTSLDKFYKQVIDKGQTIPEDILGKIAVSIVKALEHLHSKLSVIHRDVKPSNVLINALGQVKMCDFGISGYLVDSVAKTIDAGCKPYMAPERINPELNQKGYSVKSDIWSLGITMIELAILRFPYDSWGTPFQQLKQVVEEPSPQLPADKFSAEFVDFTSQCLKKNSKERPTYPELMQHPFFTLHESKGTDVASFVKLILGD", "protocol": "as §1"}, "[43]": {"molecular_target": "Rsk3 (Homo sapiens, UniProt Q15349)", "protocol": "as §1"}}, "data": [{"compound": "Cc1ccc(=O)n(-c2ccccc2)c1", "note": "[pirfenidone, 5-methyl-1-phenyl-2-(1H)-pyridone]", "values": [{"measurement": "% Activity", "setting": "[1]", "result": 86, "unit": "%"}, {"measurement": "% Activity", "setting": "[2]", "result": 88, "unit": "%"}, {"measurement": "% Activity", "setting": "[3]", "result": 102, "unit": "%"}, {"measurement": "% Activity", "setting": "[4]", "result": 101, "unit": "%"}, {"measurement": "% Activity", "setting": "[5]", "result": 114, "unit": "%"}, {"measurement": "% Activity", "setting": "[6]", "result": 74, "unit": "%"}, {"measurement": "% Activity", "setting": "[7]", "result": 95, "unit": "%"}, {"measurement": "% Activity", "setting": "[8]", "result": 96, "unit": "%"}, {"measurement": "% Activity", "setting": "[9]", "result": 109, "unit": "%"}, {"measurement": "% Activity", "setting": "[10]", "result": 88, "unit": "%"}, {"measurement": "% Activity", "setting": "[11]", "result": 101, "unit": "%"}, {"measurement": "% Activity", "setting": "[12]", "result": 96, "unit": "%"}, {"measurement": "% Activity", "setting": "[13]", "result": 86, "unit": "%"}, {"measurement": "% Activity", "setting": "[14]", "result": 107, "unit": "%"}, {"measurement": "% Activity", "setting": "[15]", "result": 98, "unit": "%"}, {"measurement": "% Activity", "setting": "[16]", "result": 97, "unit": "%"}, {"measurement": "% Activity", "setting": "[17]", "result": 104, "unit": "%"}, {"measurement": "% Activity", "setting": "[18]", "result": 78, "unit": "%"}, {"measurement": "% Activity", "setting": "[19]", "result": 90, "unit": "%"}, {"measurement": "% Activity", "setting": "[20]", "result": 106, "unit": "%"}, {"measurement": "% Activity", "setting": "[21]", "result": 94, "unit": "%"}, {"measurement": "% Activity", "setting": "[22]", "result": 92, "unit": "%"}, {"measurement": "% Activity", "setting": "[23]", "result": 105, "unit": "%"}, {"measurement": "% Activity", "setting": "[24]", "result": 92, "unit": "%"}, {"measurement": "% Activity", "setting": "[25]", "result": 98, "unit": "%"}, {"measurement": "% Activity", "setting": "[26]", "result": 96, "unit": "%"}, {"measurement": "% Activity", "setting": "[27]", "result": 111, "unit": "%"}, {"measurement": "% Activity", "setting": "[28]", "result": 92, "unit": "%"}, {"measurement": "% Activity", "setting": "[29]", "result": 104, "unit": "%"}, {"measurement": "% Activity", "setting": "[30]", "result": 88, "unit": "%"}, {"measurement": "% Activity", "setting": "[31]", "result": 46, "unit": "%"}, {"measurement": "% Activity", "setting": "[32]", "result": 91, "unit": "%"}, {"measurement": "% Activity", "setting": "[33]", "result": 84, "unit": "%"}, {"measurement": "% Activity", "setting": "[34]", "result": 104, "unit": "%"}, {"measurement": "% Activity", "setting": "[35]", "result": 89, "unit": "%"}, {"measurement": "% Activity", "setting": "[36]", "result": 93, "unit": "%"}, {"measurement": "% Activity", "setting": "[37]", "result": 90, "unit": "%"}, {"measurement": "% Activity", "setting": "[38]", "result": 97, "unit": "%"}, {"measurement": "% Activity", "setting": "[39]", "result": 92, "unit": "%"}, {"measurement": "% Activity", "setting": "[40]", "result": 94, "unit": "%"}, {"measurement": "% Activity", "setting": "[41]", "result": 97, "unit": "%"}, {"measurement": "% Activity", "setting": "[42]", "result": 84, "unit": "%"}, {"measurement": "% Activity", "setting": "[43]", "result": 115, "unit": "%"}]}]}
